Laboratory results taken from US20200338045A1, “ISOINDOLINE COMPOSITIONS AND METHODS FOR TREATING NEURODEGENERATIVE DISEASE” (priority 2017, published 2020).
Entries after “also recorded” stand apart in the source; their conditions may differ. Where two headings read alike, the source gives them in different places.

What was measured:
[1] = COG0102 pharmacokinetics: plasma and CSF concentrations, estimated brain receptor occupancy; format: in vivo, human; settings: 90-560 mg
Experimental: This trial (ClinicalTrials.gov NCT02907567) was a randomized, double-blind, placebo-controlled clinical trial in mild to moderate Alzheimer's patients (MMSE 18-26) (See FIG. 1 for clinical trial design). The trial was conducted at six sites in Australia. Patients were randomized into placebo (n=5) or CT1812-treated groups: 90 mg (n=4), 280 mg (n=5) or 560 mg (n=5) and treated once daily for 28 days. Clinical chemistry was done at Sydpath (Sydney, AU). Pharmacokinetics were done at CPR Pharma Services (Adelaide, AU). Cerebrospinal fluid samples were taken at screening and day 21-28 of treatment and aliquoted. […] One set of CSF samples was analyzed for Alzheimer's disease biomarkers; protein measurements (Aβ42, A1340, total tau, tau phosphorylated at threonine 181 (phosphorylated tau), NFL and neurogranin) were performed using commercially available ELISA assays from Fujirebio according to the manufacturer's instructions (INNOTEST β-AMYLOID(1-42), INNOTEST β-AMYLOID(1-40), INNOTEST hTau Ag, INNOTEST PHOSPHO-TAU(181P), Uman Diagnostics NFL assay). Neurogranin was measured with a sandwich ELISA method using antibodies Ng2 and Ng22 developed at the University of Gotteborg (Kvartsberg et al. 2015). Identical aliquots of CSF, and plasma were analyzed for protein expression changes via LC/MSMS at Caprion (see below).

[2] = Phase 1 single ascending dose (SAD)/food-effect plasma pharmacokinetics; format: in vivo, human; settings: for Cmax / Tmax / AUC(0-inf) / half-life: human, plasma, oral; for AUC(0-inf): read-out: AUC0-inf (mean)
Experimental: Part A was a single ascending dose cohort study in which healthy, young subjects (less than 65 years old) received one dose of study drug in the morning after an overnight fast. Cohort dosing started at 10 mg and increased to 30 mg, 90 mg, 180 mg, 450 mg, and 1120 mg in subsequent cohorts. Six drug-treated and two placebo-treated subjects were randomized in each cohort. A seventh cohort of six subjects each received a single 90 mg dose of drug 30 min. after a meal. Following completion of all safety assessments and blood draws for PK analyses, subjects were discharged on Day 3.
In Part A, blood draws for assessment of PK parameters occurred pre-dose and at 15, 30, 45, 60, and 90 minutes post dose as well as at 2, 3, 4, 8, 12, 24, 36, and 48 hours post dose. […] In Part B, blood samples for plasma PK analysis were taken on Day 1 at pre-dose and at 2 hours post-dose, on Day 3 at pre-dose and at 15, 30 and 45 minutes and 1, 2, 3, 4, 8, 12 and 24 hours post-dose, on Days 4, 6, 8 and 10 at pre-dose and at 1.5 hours post-dose and following the final dose on Day 14 at pre-dose and 15, 30 and 45 minutes and 1, 2, 4, 8, 12, 24, 36 and 48 hours post-dose.
This was assessed by analysis of variance (ANOVA) of log-transformed Cmax, AUC0-24, AUC0-48, and/or AUC0-inf, using a model with factors for treatment (fed status or age [young vs. elderly] status) and subject within sequence. Treatment mean differences and 90% confidence intervals of the log transformed PK parameters were back-transformed, to present the geometric least squares means ratios and 90% confidence limits.

[3] = Phase 1 MAD cognitive testing in healthy elderly cohort; format: in vivo, human
Experimental: The Alzheimer's Disease Assessment Scale-Cognition Subscale (ADAS-Cog 13) and a cognitive battery (including the category fluency test, controlled word association test, WMS-R digit span, digit symbol substitution test, and Rey Auditory Verbal Learning Test) were administered to subjects in the elderly cohort at baseline and on Day 14.

CYP isoenzymes = assay: Drug interaction studies
[4] = 30 mg, single 30 mg, fasted (n = 6)
[5] = 90 mg, single 90 mg, fasted (n = 6)
[6] = 90 mg, single 90 mg, fed (n = 6)
[7] = 180 mg, single 180 mg, fasted (n = 6)
[8] = 450 mg, single 450 mg, fasted (n = 6)
[9] = 1120 mg, single 1120 mg, fasted (n = 6)
[10] = single 90 mg, geometric least-squares mean

## CC(C)(C)Oc1cc(CCC(C)(C)N2Cc3ccc(S(C)(=O)=O)cc3C2)ccc1O [CT1812]
[1]; day 28
  plasma CT1812 concentration vs dose: increased approximately dose proportionally
[1]; days 22-30
  CSF CT1812 concentration vs dose: dose dependent increase
[2]; 90 mg fed vs. fasted
  food effect on CT1812 exposure: not considered clinically significant; also recorded: no significant difference
[2]; SAD 10 mg to 1120 mg
  Cmax and AUC / plasma concentration vs dose: dose proportional; also recorded: slightly greater than proportional with dose; also recorded: slightly greater than dose proportionally
[2]; 10 mg, single 10 mg, fasted, Day 1 (n = 6)
  Cmax: 5.07 ng/mL
[2]; 10 mg, single 10 mg, fasted, Day 1 (n = 6), read-out: Tmax (median)
  Tmax: 1.5 h
[2]; 10 mg, single 10 mg, fasted, Day 1, n = 5
  AUC(0-inf): 30.6 ng·h/mL
[2]; 10 mg, single 10 mg, fasted, Day 1, n = 5, read-out: t1/2 (mean) (converted)
  half-life: 12 h
[2]; [4]
  Cmax: 19.5 ng/mL
  AUC(0-inf): 77.2 ng·h/mL
[2]; 30 mg, single 30 mg, fasted (n = 6), read-out: Tmax (median)
  Tmax: 0.88 h
[2]; 30 mg, single 30 mg, fasted (n = 6), read-out: t1/2 (mean) (converted)
  half-life: 14 h
[2]; [5]
  Cmax: 109 ng/mL
  AUC(0-inf): 305 ng·h/mL
[2]; 90 mg, single 90 mg, fasted (n = 6), read-out: Tmax (median)
  Tmax: 1.25 h
[2]; 90 mg, single 90 mg, fasted (n = 6), read-out: t1/2 (mean) (converted)
  half-life: 12.1 h
[2]; [6]
  Cmax: 81.7 ng/mL
  AUC(0-inf): 261 ng·h/mL
[2]; 90 mg, single 90 mg, fed (n = 6), read-out: Tmax (median)
  Tmax: 1.5 h
[2]; 90 mg, single 90 mg, fed (n = 6), read-out: t1/2 (mean) (converted)
  half-life: 11.6 h
[2]; [7]
  Cmax: 161 ng/mL
  AUC(0-inf): 478 ng·h/mL
[2]; 180 mg, single 180 mg, fasted (n = 6), read-out: Tmax (median)
  Tmax: 1.25 h
[2]; 180 mg, single 180 mg, fasted (n = 6), read-out: t1/2 (mean) (converted)
  half-life: 11.1 h
[2]; [8]
  Cmax: 504 ng/mL
  AUC(0-inf): 1750 ng·h/mL
[2]; 450 mg, single 450 mg, fasted (n = 6), read-out: Tmax (median)
  Tmax: 1.5 h
[2]; 450 mg, single 450 mg, fasted (n = 6), read-out: t1/2 (mean) (converted)
  half-life: 12.2 h
[2]; [9]
  Cmax: 1460 ng/mL
  AUC(0-inf): 6320 ng·h/mL
[2]; 1120 mg, single 1120 mg, fasted (n = 6), read-out: Tmax (median)
  Tmax: 1.5 h
[2]; 1120 mg, single 1120 mg, fasted (n = 6), read-out: t1/2 (mean) (converted)
  half-life: 11.8 h
[2]; part A (SAD), 10-1120 mg, read-out: median Tmax in plasma, range over doses
  Tmax: 0.88 to 1.5 h
[2]; part A (SAD), read-out: apparent mean half-life, range over doses
  half-life: 11.1 to 14 h
[2]; [10]
  AUC0-48h lower under fed vs fasted conditions: ~20%
  AUC0-inf lower under fed vs fasted conditions: ~20%
  Cmax lower under fed vs fasted conditions: approximately 40%
[3]; healthy elderly cohort, 560 mg, day zero vs day 14
  cognitive scores before vs after treatment: similar
[3]; healthy elderly, 560 mg for 14 days (N = 7), Day 14, Day 0: 9.6 (4.2)
  COWAT (Trial 2), Mean (SD): 10.6 (5.1)
[3]; healthy elderly, 560 mg for 14 days (N = 7), Day 14, Day 0: 11.3 (5.7)
  COWAT (Trial 1), Mean (SD): 12.6 (4.5)
[3]; healthy elderly, 560 mg for 14 days (N = 7), Day 14, Day 0: 14.6 (5.7)
  COWAT (Trial 3), Mean (SD): 15.1 (3.7)
[3]; healthy elderly, 560 mg for 14 days (N = 7), Day 14, Day 0: 17.3 (3.9)
  RAVLT, Mean (SD): 18.7 (3.1)
[3]; healthy elderly, 560 mg for 14 days (N = 7), Day 14, Day 0: 17.9 (3.3)
  WMS-R (Digit Span), Mean (SD): 17.9 (3.3)
[3]; healthy elderly, 560 mg for 14 days (N = 7), Day 14, Day 0: 18.4 (5.5)
  CFT, Mean (SD): 19.7 (2.4)
[3]; healthy elderly, 560 mg for 14 days (N = 7), Day 14, Day 0: 78.3 (11.0)
  DSST, Mean (SD): 80 (9.6)
CYP isoenzymes
  interactions with CYP isoenzymes: minor interactions
